In article PMC11087268, “A folate inhibitor exploits metabolic differences in Pseudomonas aeruginosa for narrow-spectrum targeting” (Nature Microbiology, 2024):

Test system: E. coli MG1655
Test: Growth of E. coli MG1655 in TMI-supplemented media with fluorofolin
Format: cell-based, Escherichia coli

## Nc1nc(N)c2c(ccc3c2ccn3Cc2ccnc(F)c2)n1 [fluorofolin]
Fluorofolin + TMI, Time 500 min
  OD600 of E. coli MG1655: 0.1955
Fluorofolin + TMI, Time 510 min
  OD600 of E. coli MG1655: 0.2005
Fluorofolin + TMI, Time 520 min
  OD600 of E. coli MG1655: 0.2055
Fluorofolin + TMI, Time 530 min
  OD600 of E. coli MG1655: 0.21
Fluorofolin + TMI, Time 540 min
  OD600 of E. coli MG1655: 0.2145
Fluorofolin + TMI, Time 970 min
  OD600 of E. coli MG1655: 0.33
Fluorofolin, Time 10 min
  OD600 of E. coli MG1655: -0.0085
Fluorofolin, Time 70 min
  OD600 of E. coli MG1655: -0.005
Fluorofolin, Time 80 min
  OD600 of E. coli MG1655: -0.003
Fluorofolin, Time 90 min
  OD600 of E. coli MG1655: -0.0015
Fluorofolin, Time 100 min
  OD600 of E. coli MG1655: 0.001
Fluorofolin, Time 110 min
  OD600 of E. coli MG1655: 0.0035
Fluorofolin, Time 120 min
  OD600 of E. coli MG1655: 0.006
Fluorofolin, Time 130 min
  OD600 of E. coli MG1655: 0.009
Fluorofolin, Time 140 min
  OD600 of E. coli MG1655: 0.0125
Fluorofolin, Time 150 min
  OD600 of E. coli MG1655: 0.0155
Fluorofolin, Time 160 min
  OD600 of E. coli MG1655: 0.018
Fluorofolin, Time 170 min
  OD600 of E. coli MG1655: 0.02
Fluorofolin, Time 180 min
  OD600 of E. coli MG1655: 0.023
Fluorofolin, Time 190 min
  OD600 of E. coli MG1655: 0.0255
Fluorofolin, Time 200 min
  OD600 of E. coli MG1655: 0.028
Fluorofolin, Time 210 min
  OD600 of E. coli MG1655: 0.0305
Fluorofolin, Time 220 min
  OD600 of E. coli MG1655: 0.033
Fluorofolin, Time 230 min
  OD600 of E. coli MG1655: 0.035
Fluorofolin, Time 240 min
  OD600 of E. coli MG1655: 0.0365
Fluorofolin, Time 250 min
  OD600 of E. coli MG1655: 0.0395
Fluorofolin, Time 260 min
  OD600 of E. coli MG1655: 0.0405
Fluorofolin, Time 270 min
  OD600 of E. coli MG1655: 0.042
Fluorofolin, Time 280 min
  OD600 of E. coli MG1655: 0.044
Fluorofolin, Time 290 min
  OD600 of E. coli MG1655: 0.0455
Fluorofolin, Time 300 min
  OD600 of E. coli MG1655: 0.0475
Fluorofolin, Time 310 min
  OD600 of E. coli MG1655: 0.0485
Fluorofolin, Time 320 min
  OD600 of E. coli MG1655: 0.0505
Fluorofolin, Time 330 min
  OD600 of E. coli MG1655: 0.0515
Fluorofolin, Time 340 min
  OD600 of E. coli MG1655: 0.053
Fluorofolin, Time 350 min
  OD600 of E. coli MG1655: 0.0545
Fluorofolin, Time 360 min
  OD600 of E. coli MG1655: 0.0555
Fluorofolin, Time 370 min
  OD600 of E. coli MG1655: 0.0565
Fluorofolin, Time 380 min
  OD600 of E. coli MG1655: 0.0575
Fluorofolin, Time 390 min
  OD600 of E. coli MG1655: 0.058
Fluorofolin, Time 400 min
  OD600 of E. coli MG1655: 0.059
Fluorofolin, Time 410 min
  OD600 of E. coli MG1655: 0.0595
Fluorofolin, Time 420 min
  OD600 of E. coli MG1655: 0.0605
Fluorofolin, Time 430 min
  OD600 of E. coli MG1655: 0.061
Fluorofolin, Time 440 min
  OD600 of E. coli MG1655: 0.0615
Fluorofolin, Time 450 min
  OD600 of E. coli MG1655: 0.062
Fluorofolin, Time 460 min
  OD600 of E. coli MG1655: 0.062
Fluorofolin, Time 470 min
  OD600 of E. coli MG1655: 0.063
Fluorofolin, Time 480 min
  OD600 of E. coli MG1655: 0.0635
Fluorofolin, Time 490 min
  OD600 of E. coli MG1655: 0.0635
Fluorofolin, Time 500 min
  OD600 of E. coli MG1655: 0.064
Fluorofolin, Time 510 min
  OD600 of E. coli MG1655: 0.064
Fluorofolin, Time 520 min
  OD600 of E. coli MG1655: 0.064
Fluorofolin, Time 530 min
  OD600 of E. coli MG1655: 0.064
Fluorofolin, Time 540 min
  OD600 of E. coli MG1655: 0.064
Fluorofolin, Time 970 min
  OD600 of E. coli MG1655: 0.053
